Each structure is given as a SMILES string. pIC50: −log10 of the molar value. A value given as a limit tells only on which side of the number the result lay.

Experimental findings from patent US20100216779A1 (GLAXOSMITHKLINE LLC, priority 2007, published 2010) are described below.

One experiment deals with COLO205 (colon). The experiment is described as follows: Inhibition of cell proliferation, CellTiter-Glo, COLO205. The class given is cell-based. The settings on record: Homo sapiens, COLO 205, 72 h. An outline of the steps: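 Exponentially growing COLO205 cells in medium with 10% FBS were plated below 2000 cells/well at 37 °C, 5% CO2. Untreated wells served as controls.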

Experiment [1] deals with T1, IR (NIH-3T3 cells over expressing human IGF-1R or IR) (Homo sapiens, UniProt P06213).
T1 construct: expressed in transfected cells; host or cells: NIH-3T3 (mouse fibroblasts)
In words: IR cellular autophosphorylation (DELFIA). It is filed as cell-based. Conditions: NIH-3T3 cells over expressing IR, insulin stimulated. An outline of the steps: (§1)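 Autophosphorylation of IGF-1R or IR is measured in NIH-3T3 lines overexpressing each human receptor after 2 h compound pretreatment and a 15 min ligand challenge (IGF-1 30 ng/mL; insulin 3 ug/mL). Fluorescence is normalised to 100% stimulation.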

Experiment [2] addresses T2, human IGF-1R (NIH-3T3 cells over expressing human IGF-1R) (Homo sapiens, UniProt P08069).
T2 construct: expressed in transfected cells; host or cells: NIH-3T3 (mouse fibroblasts)
The experiment is described as follows: IGF-1R cellular autophosphorylation (DELFIA). It is filed as cell-based. Conditions: IGF-1 stimulated. An outline of the steps: as §1

Another experiment has as its target T3, human IGF1R (hIGF1R) (Homo sapiens, UniProt P08069).
T3 construct: containing amino acid residues 957-1367 of human IGF1R; made in house; host or cells: Sf9 cells, baculovirus
In words: IGF1R TR-FRET assay using peptide as the phosphoacceptor. It is filed as biochemical. The settings on record: 10 μM ATP, 0.5 nM activated enzyme; for IC50: read-out: IGF-1R pIC50 (converted). As for the experimental part:
A. IR and IGF1 R Time Resolved Fluorescence Resonance Energy Transfer (TR-FRET) Assay Using Peptide as the Phosphoacceptor
Substrate phosphorylation assays are carried out as follows:
The Source of Substrate Peptide
The biotinylated substrate peptide, (sequence-Biotin-aminohexyl-AEEEEY*[…]-NH2) SEQ. ID. 1 is purchased from QCB, Inc. (Hopkinton, Mass.). Purity is determined by HPLC. The calculated molecular mass of the peptide is 2216 dalton. Tyrosine phosphorylation by human IGF1R (hIGF1R) or human IR (hIR) occurs as indicated (Y*) in the peptide sequence described. Solid peptide sample is dissolved to approximately 1 mM in DMSO, aliquoted, and stored at −20° C. until use. True peptide concentration is determined by amino acid analysis.
The Source of Enzyme: • hIGF1R: GST-rTEV-IGF-1R (957-1367) containing amino acid residues 957-1367 of human IGF1R (as annotated by National Center for Biotechnology Information (NCBI) accession number NP_000866) is purified from a baculovirus expression system in Sf9 cells using Glutathione Sepharose 4FF column chromatography followed by Sephadex-200 size exclusion column chromatography. Enzyme purity of approximately 95% is achieved. Samples, in 25 mM Tris-HCl, 250 mM NaCl, 5% glycerol, 1 mM DTT, pH 7.5, are stored at −80° C. until use. • hIR: GST-rTEV-IR(979-1382) containing amino acid residues 979-1382 of human IR (as annotated by NCBI accession number NP_000199) is expressed and purified by the same process as hIGF1R. Enzyme purity of approximately 92% is achieved. Samples, in 25 mM Tris-HCl, 250 mM NaCl, 5% glycerol, 1 mM DTT, pH 7.5, are stored at −80° C. until use.
Activation of hIGF1R and hIR by Autophosphorylation: • hIGF1R: Activation of GST-rTEV-IGF-1R(957-1367) is achieved by a 4 minute incubation of hIGF1R (2.7 μM final) with 2 mM ATP in 50 mM HEPES, 20 mM MgCl2, 0.1 mg/mL BSA, at room temperature. Autophosphorylation is stopped by addition of EDTA (to 100 mM final). Aliquoted samples are flash frozen in liquid nitrogen and stored at −80° C. until use. • hIR: Activation of […] is achieved by a 5 minute incubation of hIR (2.7 μM final) with 2 mM ATP in 100 mM HEPES, 10 mM MgCl2, 0.1 mg/mL BSA, at room temperature. Autophosphorylation is stopped by addition of EDTA (to 100 mM final). Aliquoted samples are flash frozen in liquid nitrogen and stored at −80° C. until use. • Kinase Assay of Purified hIGF1R or hIR:
Assays are performed in 384-well (Greiner, Catalog No. 784076) microtiter plates. Reaction buffer (50 mM HEPES buffer, pH 7.5; 10 mM MgCl2; 3 mM DTT; 1 mM CHAPS; 0.1 mg/mL BSA) for peptide phosphorylation (10 μl volume) contained, in final concentrations, 500 nM biotinylated peptide substrate; 10 μM ATP; and purified, activated hIGF1R or hIR (0.5 nM). Some compounds were initially assayed against IGF1R in buffer without DTT or CHAPS. […] Compounds, titrated in DMSO, are evaluated at eleven concentrations ranging from 50 μM to 0.2 nM. […] No effect on activity relative to controls without DMSO is observed for hIGF1R or IR at these DMSO amounts. Reactions are incubated for 1 hour at room temperature and are stopped by a 5 μl addition of EDTA (to 33 mM). A further addition of 5 μl detection reagents (for final 7 nM Streptavidin-APC (PerkinElmer #CR130-150), 1 nM Europium-labeled anti-phosphotyrosine monoclonal antibody (PerkinElmer #AD0067), added in reaction buffer (without DTT), is required for signal generation. After 30 minutes, signal is read on PerkinElmer Viewlux microplate imager or Wallac Victor fluorometer.
Data were fitted to the curve described by:
y=((Vmax*x)/(K+x)) where • Vmax is the upper asymptote and • K is the IC50.
The results for each tested compound were recorded as pIC50 calculated as follows: […]
(In TR-FRET formats the signal depends on donor and acceptor labels being close together.)

The target of a further experiment is T4, human IR (hIR) (Homo sapiens, UniProt P06213).
T4 construct: containing amino acid residues 979-1382 of human IR; GST (N); rTEV protease site (linker between GST and kinase) (N); made in house; host or cells: Sf9 cells, baculovirus (same process as hIGF1R)
The experiment is described as follows: IR TR-FRET assay using peptide as the phosphoacceptor. The settings on record: 10 μM ATP, 0.5 nM activated enzyme; for IC50: read-out: IR pIC50 (converted). It is filed as biochemical.

Experiment [3] relates to NCI-H929 (multiple myeloma). In words: Inhibition of cell proliferation, CellTiter-Glo, NCI-H929. The class given is cell-based. Conditions: Homo sapiens, 72 h. A digest of the protocol: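 Cells were grown in medium with 10% FBS at 37° C, 5% CO2. Cell number was read as CellTiter-Glo luminescence (cellular ATP), with untreated wells as control.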

T2 sequence (P08069 31-1367): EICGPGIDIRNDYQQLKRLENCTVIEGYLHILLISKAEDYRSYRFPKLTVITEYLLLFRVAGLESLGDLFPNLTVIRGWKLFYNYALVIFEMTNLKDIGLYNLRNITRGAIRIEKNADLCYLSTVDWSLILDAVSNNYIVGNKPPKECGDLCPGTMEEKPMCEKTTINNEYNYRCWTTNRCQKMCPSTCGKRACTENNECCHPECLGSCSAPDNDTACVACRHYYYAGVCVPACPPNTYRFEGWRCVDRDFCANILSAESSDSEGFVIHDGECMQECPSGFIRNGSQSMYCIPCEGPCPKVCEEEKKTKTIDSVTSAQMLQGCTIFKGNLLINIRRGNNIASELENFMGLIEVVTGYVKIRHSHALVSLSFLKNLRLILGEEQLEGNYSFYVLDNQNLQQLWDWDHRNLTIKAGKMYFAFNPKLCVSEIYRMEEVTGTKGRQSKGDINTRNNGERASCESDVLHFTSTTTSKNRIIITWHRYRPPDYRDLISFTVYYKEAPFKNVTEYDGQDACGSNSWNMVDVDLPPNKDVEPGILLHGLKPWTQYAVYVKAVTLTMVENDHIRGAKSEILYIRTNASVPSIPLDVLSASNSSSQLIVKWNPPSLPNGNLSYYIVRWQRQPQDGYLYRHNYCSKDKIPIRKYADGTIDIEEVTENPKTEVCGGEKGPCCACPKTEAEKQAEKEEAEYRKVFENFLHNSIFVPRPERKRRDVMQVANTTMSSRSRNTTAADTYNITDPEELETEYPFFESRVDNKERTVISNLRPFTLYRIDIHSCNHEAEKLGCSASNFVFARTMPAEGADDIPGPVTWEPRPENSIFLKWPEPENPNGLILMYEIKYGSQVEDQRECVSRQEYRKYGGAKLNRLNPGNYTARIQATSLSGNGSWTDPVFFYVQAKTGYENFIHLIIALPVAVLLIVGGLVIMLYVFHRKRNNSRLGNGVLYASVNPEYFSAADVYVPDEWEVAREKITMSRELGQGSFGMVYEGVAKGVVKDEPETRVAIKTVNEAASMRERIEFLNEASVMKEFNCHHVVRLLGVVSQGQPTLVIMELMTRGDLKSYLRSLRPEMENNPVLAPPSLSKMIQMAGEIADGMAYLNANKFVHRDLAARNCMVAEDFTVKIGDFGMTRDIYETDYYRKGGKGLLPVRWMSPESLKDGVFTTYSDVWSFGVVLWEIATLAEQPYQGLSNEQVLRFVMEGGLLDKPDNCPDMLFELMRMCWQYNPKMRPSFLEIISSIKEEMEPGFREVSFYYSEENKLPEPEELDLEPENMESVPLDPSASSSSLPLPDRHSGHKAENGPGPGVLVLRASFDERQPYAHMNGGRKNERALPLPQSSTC
T3 sequence (P08069 957-1367): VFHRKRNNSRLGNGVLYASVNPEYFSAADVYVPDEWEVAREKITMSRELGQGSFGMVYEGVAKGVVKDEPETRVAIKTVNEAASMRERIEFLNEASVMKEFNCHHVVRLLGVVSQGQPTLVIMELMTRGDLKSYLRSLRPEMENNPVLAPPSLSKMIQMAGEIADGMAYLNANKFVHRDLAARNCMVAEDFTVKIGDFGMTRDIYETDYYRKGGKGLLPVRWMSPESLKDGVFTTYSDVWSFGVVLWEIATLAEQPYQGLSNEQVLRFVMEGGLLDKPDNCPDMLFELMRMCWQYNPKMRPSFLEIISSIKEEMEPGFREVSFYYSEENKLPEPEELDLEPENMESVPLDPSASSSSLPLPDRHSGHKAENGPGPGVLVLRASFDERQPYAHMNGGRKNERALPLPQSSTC
T4 sequence (P06213 979-1382): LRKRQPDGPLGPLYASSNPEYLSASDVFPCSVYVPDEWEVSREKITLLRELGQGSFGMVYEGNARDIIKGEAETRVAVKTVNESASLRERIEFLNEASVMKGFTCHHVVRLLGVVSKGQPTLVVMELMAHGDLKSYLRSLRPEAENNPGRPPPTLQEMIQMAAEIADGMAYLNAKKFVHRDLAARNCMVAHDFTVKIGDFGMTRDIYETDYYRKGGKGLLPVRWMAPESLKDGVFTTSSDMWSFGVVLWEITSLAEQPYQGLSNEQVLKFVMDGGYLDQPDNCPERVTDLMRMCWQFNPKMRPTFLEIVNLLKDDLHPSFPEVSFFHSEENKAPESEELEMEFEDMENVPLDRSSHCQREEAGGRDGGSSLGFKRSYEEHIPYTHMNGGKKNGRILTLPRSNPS
T1 sequence (P06213 28-1382): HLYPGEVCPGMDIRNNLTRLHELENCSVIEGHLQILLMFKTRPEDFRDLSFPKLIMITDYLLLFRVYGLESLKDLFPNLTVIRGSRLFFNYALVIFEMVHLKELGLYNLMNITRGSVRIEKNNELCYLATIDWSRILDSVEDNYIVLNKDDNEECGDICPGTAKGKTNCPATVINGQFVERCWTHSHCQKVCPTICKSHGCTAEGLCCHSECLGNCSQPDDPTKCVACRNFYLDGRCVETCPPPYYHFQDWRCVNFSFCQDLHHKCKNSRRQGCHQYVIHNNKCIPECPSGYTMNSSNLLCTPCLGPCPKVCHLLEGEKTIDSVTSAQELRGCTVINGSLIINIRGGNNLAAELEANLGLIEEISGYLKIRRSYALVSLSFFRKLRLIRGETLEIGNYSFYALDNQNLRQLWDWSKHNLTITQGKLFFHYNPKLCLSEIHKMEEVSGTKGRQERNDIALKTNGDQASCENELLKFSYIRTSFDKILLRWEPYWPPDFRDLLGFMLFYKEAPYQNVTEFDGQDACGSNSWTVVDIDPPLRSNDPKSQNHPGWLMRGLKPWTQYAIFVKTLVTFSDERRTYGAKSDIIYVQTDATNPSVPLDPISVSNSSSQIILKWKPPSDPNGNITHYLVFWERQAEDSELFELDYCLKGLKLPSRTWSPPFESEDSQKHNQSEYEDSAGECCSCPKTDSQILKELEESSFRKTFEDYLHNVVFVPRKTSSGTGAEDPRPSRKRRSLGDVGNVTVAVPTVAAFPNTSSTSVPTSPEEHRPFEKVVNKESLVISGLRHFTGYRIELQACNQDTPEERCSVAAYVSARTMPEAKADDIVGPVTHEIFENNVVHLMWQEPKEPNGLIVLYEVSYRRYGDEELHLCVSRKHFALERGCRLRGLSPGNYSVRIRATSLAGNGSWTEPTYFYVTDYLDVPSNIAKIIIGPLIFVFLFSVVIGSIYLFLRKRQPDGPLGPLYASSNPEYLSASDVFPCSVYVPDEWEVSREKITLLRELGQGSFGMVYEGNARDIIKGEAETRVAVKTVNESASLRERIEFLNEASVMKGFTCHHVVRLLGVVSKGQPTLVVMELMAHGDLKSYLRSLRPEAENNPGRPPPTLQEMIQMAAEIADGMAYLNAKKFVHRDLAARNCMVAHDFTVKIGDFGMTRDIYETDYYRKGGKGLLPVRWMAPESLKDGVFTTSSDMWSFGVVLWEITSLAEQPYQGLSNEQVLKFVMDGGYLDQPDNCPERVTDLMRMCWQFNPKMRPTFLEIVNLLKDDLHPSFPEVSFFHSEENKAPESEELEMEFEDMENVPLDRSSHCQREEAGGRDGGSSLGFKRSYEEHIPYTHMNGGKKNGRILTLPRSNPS
Method for human IR (hIR): Reaction buffer (50 mM HEPES buffer, pH 7.5; 10 mM MgCl2; 3 mM DTT; 1 mM CHAPS; 0.1 mg/mL BSA) for peptide phosphorylation (10 μl volume) contained, in final concentrations, 500 nM biotinylated peptide substrate; 10 μM ATP; and purified, activated hIGF1R or hIR (0.5 nM). Some compounds were initially assayed against IGF1R in buffer without DTT or CHAPS. […] Compounds, titrated in DMSO, are evaluated at eleven concentrations ranging from 50 μM to 0.2 nM. […] Reactions are incubated for 1 hour at room temperature and are stopped by a 5 μl addition of EDTA (to 33 mM). A further addition of 5 μl detection reagents (for final 7 nM Streptavidin-APC (PerkinElmer #CR130-150), 1 nM Europium-labeled anti-phosphotyrosine monoclonal antibody (PerkinElmer #AD0067), added in reaction buffer (without DTT), is required for signal generation. After 30 minutes, signal is read on PerkinElmer Viewlux microplate imager or Wallac Victor fluorometer.
The data for compound concentration responses were plotted as % Inhibition, calculated with the data reduction formula 100*(1-[(U1-C2)/(C1-C2)]), versus concentration of compound, where • U is the unknown value, • C1 is the average control value obtained for DMSO only, and
C2 is the average control value obtained for reactions stopped with EDTA at t=0.

By pIC50 is commonly meant the negative decadic logarithm of the IC50, by convention in mol/L. Lower therefore signals a large IC50. With `CCOc1cc(CCN2CCN(C)CC2)ccc1Nc1nccc(-c2c(-c3ccc(OC)c(C(=O)Nc4c(F)cccc4F)c3)nc3ccccn23)n1` [Example 146, N-(2,6-difluorophenyl)-5-{3-[2-({2-(ethyloxy)-4-[2-(4-methyl-1-piperazinyl)ethyl]-phenyl}amino)-4-pyrimidinyl]imidazo[1,2-a]pyridin-2-yl}-2-(methyloxy)benzamide], the pIC50 in the experiment with COLO205 (colon) is 6.00 to 6.60; in experiment [1] it was under 6.30; in experiment [2] it was under 6.30. The IC50 at human IGF1R (hIGF1R) and on human IR (hIR) was under 100 nM throughout.

Turning to `CCOc1cc(CCN2CCN(C)CC2)ccc1Nc1nccc(-c2c(-c3cccc(C(=O)Nc4c(F)cccc4F)c3)nc3ccccn23)n1` [Example 147, N-(2,6-difluorophenyl)-3-{3-[2-({2-(ethyloxy)-4-[2-(4-methyl-1-piperazinyl)ethyl]-phenyl}amino)-4-pyrimidinyl}imidazo[1,2-a]pyridin-2-yl]benzamide], the pIC50 in the experiment with COLO205 (colon) is under 6.00; in experiment [1], over 7.00; in experiment [2], over 7.00. Besides, the IC50 at human IGF1R (hIGF1R) and at human IR (hIR) was under 100 nM in each case.

For `COc1cc(N2CCN(S(C)(=O)=O)CC2)c(C)cc1Nc1nccc(-c2c(-c3ccc(OC)c(C(=O)Nc4c(F)cccc4F)c3)nc3ccccn23)n1` [Example 225, N-(2,6-difluorophenyl)-5-{3-[2-({5-methyl-2-(methyloxy)-4-[4-(methylsulfonyl)-1-piperazinyl]phenyl}amino)-4-pyrimidinyl]imidazo[1,2-a]pyridin-2-yl}-2-(methyloxy)benzamide], the pIC50 is over 6.60 with COLO205 (colon), over 7.00 in experiment [1], over 7.00 in experiment [2] and over 6.60 in experiment [3]. Further, the IC50 on human IGF1R (hIGF1R) and on human IR (hIR) was under 100 nM each time.

In the case of `CCOc1ccc(-c2nc3ccccn3c2-c2ccnc(Nc3cc(CC)c(N4CCC(N5CCN(S(C)(=O)=O)CC5)CC4)cc3OC)n2)cc1C(=O)Nc1c(F)cccc1F` [Example 206, N-(2,6-difluorophenyl)-5-(3-{2-[(5-ethyl-2-(methyloxy)-4-{4-[4-(methylsulfonyl)-1-piperazinyl]-1-piperidinyl}phenyl)amino]-4-pyrimidinyl}imidazo[1,2-a]pyridin-2-yl)-2-(ethyloxy)benzamide], the pIC50 is over 6.60 with COLO205 (colon), over 7.00 in experiment [1], over 7.00 in experiment [2] and over 6.60 in experiment [3]. The “IGF-1R pIC50” value on human IGF1R (hIGF1R) is reported as “++ (at least one average pIC50 measurement greater than 6 against the kinase tested but no average measurement greater than pIC50 of 7)”. At human IR (hIR), the “IR pIC50” value is recorded as “++ (at least one average pIC50 measurement greater than 6 against the kinase tested but no average measurement greater than pIC50 of 7)”.

As for `CCOc1ccc(-c2nc3ccccn3c2-c2ccnc(Nc3cc(CC)c(N4CCC(CCS(C)(=O)=O)CC4)cc3OC)n2)cc1C(=O)Nc1c(F)cccc1F` [Example 209, N-(2,6-difluorophenyl)-5-(3-{2-[(5-ethyl-2-(methyloxy)-4-{4-[2-(methylsulfonyl)ethyl]-1-piperidinyl}phenyl)amino]-4-pyrimidinyl}imidazo[1,2-a]pyridin-2-yl)-2-(ethyloxy)benzamide], the pIC50 with COLO205 (colon) was over 6.60; in experiment [1], over 7.00; in experiment [2], over 7.00; in experiment [3] it was over 6.60. Also, the “IGF-1R pIC50” value at human IGF1R (hIGF1R) is on record as “++ (at least one average pIC50 measurement greater than 6 against the kinase tested but no average measurement greater than pIC50 of 7)”.

Take `CCOc1ccc(-c2nc3ccccn3c2-c2ccnc(Nc3cc(Cl)c(N4CCN(CCS(C)(=O)=O)CC4)cc3OC)n2)cc1C(=O)Nc1c(F)cccc1F` [Example 212]: the pIC50 in the experiment with COLO205 (colon) was over 6.60; in experiment [1], over 7.00; in experiment [2], over 7.00; in experiment [3], over 6.60. In addition, the IC50 on human IGF1R (hIGF1R) and on human IR (hIR) was under 100 nM throughout.

With `CCOc1cc(N2CCC(CCS(C)(=O)=O)CC2)c(CC)cc1Nc1nccc(-c2c(-c3ccc(OCC)c(C(=O)Nc4c(F)cccc4F)c3)nc3ccccn23)n1` [Example 208, N-(2,6-difluorophenyl)-5-(3-{2-[(5-ethyl-2-(ethyloxy)-4-{4-[2-(methylsulfonyl)ethyl]-1-piperidinyl}phenyl)amino]-4-pyrimidinyl}imidazo[1,2-a]pyridin-2-yl)-2-(ethyloxy)benzamide], the pIC50 in the experiment with COLO205 (colon) is over 6.60; in experiment [1] it was over 7.00; in experiment [2], over 7.00; in experiment [3] it was over 6.60. For the same compound, the “IGF-1R pIC50” value on human IGF1R (hIGF1R) was “++ (at least one average pIC50 measurement greater than 6 against the kinase tested but no average measurement greater than pIC50 of 7)”. The “IR pIC50” value on human IR (hIR) is on record as “++ (at least one average pIC50 measurement greater than 6 against the kinase tested but no average measurement greater than pIC50 of 7)”.

Take `CCOc1cc(N2CCC(CCS(C)(=O)=O)CC2)c(C)cc1Nc1nccc(-c2c(-c3ccc(OC(C)C)c(C(=O)Nc4c(F)cccc4F)c3)nc3ccccn23)n1` [Example 215]: the pIC50 with COLO205 (colon) was over 6.60; in experiment [1], over 7.00; in experiment [2] it was over 7.00; in experiment [3], over 6.60. In addition, the “IGF-1R pIC50” value on human IGF1R (hIGF1R) is “++ (at least one average pIC50 measurement greater than 6 against the kinase tested but no average measurement greater than pIC50 of 7)”. Moreover, the “IR pIC50” value at human IR (hIR) is recorded as “++ (at least one average pIC50 measurement greater than 6 against the kinase tested but no average measurement greater than pIC50 of 7)”.
